Assay [1] concerns HCT116 MTAP null cells. The assay can be described thus: HCT116 MTAP null cell line proliferation / cell viability (CellTiter-Glo, 6 days). It counts as cell-based. To be noted: 144 h; HCT116 MTAP null cells, 6 days treatment, CellTiter-Glo cell viability; read-out: HCT-116 MTAP null IC50. In outline: (§1)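 Isogenic HCT116 pair (parental and MTAP-knockout) in RPMI 1640 + 10% FBS, treated 6 days with 8–9-point 1:3 dilutions from 1 or 10 μM top, or 22-point 1:2 dilutions from 10 or 50 μM top. Viability by CellTiter-Glo luminescence; IC50 from 4-parameter logistic fit or sigmoidal fit with Hill slope fixed at −1.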

Assay [2] deals with HCT116 WT cells. The assay can be described thus: HCT116 WT (parent) cell line proliferation / cell viability (CellTiter-Glo, 6 days). The format is cell-based. Particulars: Homo sapiens, HCT-116, 144 h, 6 days treatment. In outline: as §1

As for `CN(C(=O)c1ccc2nc(N)c3c(c2c1)COC3)[C@@H]1COCc2cc(Br)ccc21` (single isomer, unassigned) [Example 608], the results for the half-maximal inhibitory concentration (IC50) in assay [1] and in assay [2] were 26 nM and 1040 nM, respectively.
On the same counts, the results for `CN(C(=O)c1ccc2nc(N)c3c(c2c1)COC3)[C@H]1COCc2cc(Br)ccc21` (single isomer, unassigned) [Example 609] are 598 nM and 7800 nM.
On the same counts, the results for `CN(C(=O)c1ccc2nc(N)c3c(c2c1)COC3)[C@@H]1COc2cc(C3CC3)ccc21` (single isomer, unassigned) [Example 610] are 108 nM and 5510 nM.
On the same counts, the results for `CN(C(=O)c1ccc2nc(N)c3c(c2c1)COC3)[C@H]1COc2cc(C3CC3)ccc21` (single isomer, unassigned) [Example 611] are 1690 nM and 10500 nM.
Consider `CN(C(=O)c1ccc2nc(N)c3c(c2c1)COC3)[C@@H]1COc2cc(C3=CCOCC3)ccc21` (single isomer, unassigned) [Example 612], for which the 50% inhibitory concentration (IC50) in assay [1] stood at 33 nM; in assay [2] it was 2640 nM.
For `CN(C(=O)c1ccc2nc(N)c3c(c2c1)COC3)[C@H]1COc2cc(C3=CCOCC3)ccc21` (single isomer, unassigned) [Example 613], in that order: 860 nM and 2630 nM.
For `CN(C(=O)c1ccc2nc(N)c3cnn(C)c3c2c1)[C@@H]1CCc2cc(-c3cnn(C)c3)ccc21` (single isomer, unassigned) [Example 623], in that order: 64 nM and 3490 nM.
On the same counts, the results for `CN(C(=O)c1ccc2nc(N)c3cnn(C)c3c2c1)[C@H]1CCc2nc(-c3cnn(C)c3)ccc21` (single isomer, unassigned) [Example 624] are 75 nM and 6510 nM.
As for `CN(C(=O)c1ccc2nc(N)c3cnn(C)c3c2c1)[C@@H]1COCc2cc(-c3cnn(C(F)(F)F)c3)ccc21` (single isomer, unassigned) [Example 663], the IC50 came to 10 nM in assay [1] and 922 nM in assay [2].
On the same counts, the results for `CN(C(=O)c1ccc2nc(N)c3cnn(C)c3c2c1)[C@H]1COCc2cc(-c3cnn(C(F)(F)F)c3)ccc21` (single isomer, unassigned) [Example 664] are 319 nM and 1770 nM.
For `CN(C(=O)c1cc2c3c(c(N)nc2cc1F)COC3)[C@H]1COCc2cc(-c3ccc(C(F)(F)F)cc3)ccc21` (single isomer, unassigned) [Example 665], in that order: 875 nM and 2510 nM.
For `CN(C(=O)c1cc2c3c(c(N)nc2cc1F)COC3)[C@@H]1COCc2cc(-c3ccc(C(F)(F)F)cc3)ccc21` (single isomer, unassigned) [Example 666], in that order: 22 nM and 1100 nM.
As to `CN(C(=O)c1ccc2nc(N)c3cnn(C)c3c2c1)[C@@H]1COCc2cc(-c3ccc(C(F)(F)F)cc3)ccc21` (single isomer, unassigned) [Example 669], the IC50 in assay [1] came to 16 nM; in assay [2], 1000 nM.
On the same counts, the results for `CN(C(=O)c1ccc2nc(N)c3cnn(C)c3c2c1)[C@H]1COCc2cc(-c3ccc(C(F)(F)F)cc3)ccc21` (single isomer, unassigned) [Example 670] are 536 nM and 1120 nM.
In the case of `Cc1ccc2c(c1)CC[C@H]2N(C)C(=O)c1ccc2nc(N)c3cnn(C)c3c2c1` (single isomer, unassigned) [Example 680], the half-maximal inhibitory concentration (IC50) in assay [1] is 168 nM; in assay [2] it was 7960 nM.
On the same counts, the results for `CCN(C(=O)c1cc2c(cn1)nc(N)c1cnn(C)c12)C1COc2cc(C(F)(F)F)ccc21` (stereo in doubt) [Example 238, 4-amino-N-ethyl-1-methyl-N-((3S)-6-(trifluoromethyl)-2,3-dihydro-1-benzofuran-3-yl)-1H-pyrazolo[4,3-c][1,7]naph-thyridine-8-carboxamide] are 215 nM and 13000 nM.
On the same counts, the results for `Cn1ncc2c(N)nc3cc(F)c(C(=O)N(C4CC4)[C@@H]4COc5cc(C(F)(F)F)ccc54)cc3c21` [Example 200, (S)-4-amino-N-cyclopropyl-7-fluoro-1-methyl-N-(6-(trifluoromethyl)-2,3-dihydrobenzofuran-3-yl)-1H-pyrazolo[4,3-c]quinoline-8-carboxamide] are 8 nM and 112 nM.
For `CN(C(=O)c1ccc2nc(N)c3c(c2c1)COC3)[C@@H]1COc2cc(-c3cnn(C)c3)ccc21` [Example 202, 4-amino-N-methyl-N-((3S)-6-(1-methyl-1H-pyrazol-4-yl)-2,3-dihydro-1-benzofuran-3-yl)-1,3-dihydrofuro[3,4-c]-quinoline-8-carboxamide], in that order: 83 nM and 11400 nM.
As for `C[C@H]1OCc2c1c(N)nc1ccc(C(=O)N(C)[C@@H]3COc4cc(-c5cnn(C)c5)ccc43)cc21` [Example 204, (3R)-4-amino-N,3-dimethyl-N-((3S)-6-(1-methyl-1H-pyrazol-4-yl)-2,3-dihydro-1-benzofuran-3-yl)-1,3-dihydrofuro[3,4-c]-quinoline-8-carboxamide], the IC50 in assay [1] came out at 31 nM; in assay [2] it was 4390 nM.
For `CN(C(=O)c1cc2c3c(c(N)nc2cn1)COC3)[C@@H]1COc2cc(OC(F)(F)F)ccc21` [Example 206, 4-amino-N-methyl-N-((3S)-6-(trifluoromethoxy)-2,3-dihydro-1-benzofuran-3-yl)-1,3-dihydrofuro[3,4-c][1,7]-naphthyridine-8-carboxamide], in that order: 100 nM and 9790 nM.
For `CN(C(=O)c1cc2c3c(c(N)nc2cn1)COC3)[C@H]1COc2cc(OC(F)(F)F)ccc21` [Example 207, 4-amino-N-methyl-N-((3R)-6-(trifluoromethoxy)-2,3-dihydro-1-benzofuran-3-yl)-1,3-dihydrofuro[3,4-c][1,7]-naphthyridine-8-carboxamide], in that order: 6060 nM and 23200 nM.
On the same counts, the results for `CN(C(=O)c1cc2c3c(c(N)nc2cn1)COC3)[C@@H]1COc2cc(Cl)c(Cl)cc21` [Example 209, 4-amino-N-((3S)-5,6-dichloro-2,3-dihydro-1-benzofuran-3-yl)-N-methyl-1,3-dihydrofuro[3,4-c][1,7]naphthyridine-8-carbox-amide] are 61 nM and 3000 nM.
For the compound `CN(C(=O)c1cc2c3c(c(N)nc2cn1)COC3)[C@H]1COc2cc(Cl)c(Cl)cc21` [Example 210, 4-amino-N-((3R)-5,6-dichloro-2,3-dihydro-1-benzofuran-3-yl)-N-methyl-1,3-dihydrofuro[3,4-c][1,7]naphthyridine-8-carbox-amide], the IC50 was 2370 nM in assay [1] and 25300 nM in assay [2].
On the same counts, the results for `C[C@H]1OCc2c1c(N)nc1cnc(C(=O)N(C)[C@@H]3COc4cc(C(F)(F)F)ccc43)cc21` [Example 211, (3R)-4-amino-N,3-dimethyl-N-((3S)-6-(trifluoromethyl)-2,3-dihydro-1-benzofuran-3-yl)-1,3-dihydrofuro[3,4-c][1,7]-naphthyridine-8-carboxamide] are 28 nM and 1460 nM.
For `CN(C(=O)c1cc2c3c(c(N)nc2cc1F)COC3)C1COc2ncc(C(F)(F)F)cc21` [Example 212, 4-amino-7-fluoro-N-methyl-N-((3R)-5-(trifluoromethyl)-2,3-dihydrofuro[2,3-b]pyridin-3-yl)-1,3-dihydrofuro[3,4-c]-quinoline-8-carboxamide and 4-amino-7-fluoro-N-methyl-N-((3S)-5-(trifluoromethyl)-2,3-dihydrofuro[2,3-b]pyridin-3-yl)-1,3-dihydrofuro[3,4-c]quin-oline-8-carboxamide], in that order: 495 nM and 10700 nM.
On the same counts, the results for `CN(C(=O)c1cc2c3c(c(N)nc2cc1F)COC3)[C@@H]1COc2cc(-c3cnn(C)c3)ccc21` [Example 214, 4-amino-7-fluoro-N-methyl-N-((3S)-6-(1-methyl-1H-pyrazol-4-yl)-2,3-dihydro-1-benzofuran-3-yl)-1,3-dihydrofuro[3,4-c]-quinoline-8-carboxamide] are 29 nM and 2060 nM.
As for `C[C@H]1OCc2c1c(N)nc1cc(F)c(C(=O)N(C)[C@@H]3COc4cc(-c5cnn(C)c5)ccc43)cc21` [Example 217, (3R)-4-amino-7-fluoro-N,3-dimethyl-N-((3S)-6-(1-methyl-1H-pyrazol-4-yl)-2,3-dihydro-1-benzofuran-3-yl)-1,3-dihydrofuro[3,4-c]quinoline-8-carboxamide], the IC50 in assay [1] was determined as 10 nM; in assay [2], 1020 nM.
On to `CN(C(=O)c1cc2c3c(c(N)nc2cc1C#N)COC3)[C@@H]1COc2cc(C(F)(F)F)ccc21` [Example 218, 4-amino-7-cyano-N-methyl-N-((3S)-6-(trifluoromethyl)-2,3-dihydro-1-benzofuran-3-yl)-1,3-dihydrofuro[3,4-c]quin-oline-8-carboxamide], for which the IC50 was determined as 13 nM in assay [1] and 838 nM in assay [2].
For `CN(C(=O)c1ccc2nc(N)c3c(c2c1)CSC3)[C@@H]1COc2cc(C(F)(F)F)ccc21` [Example 219, 4-amino-N-methyl-N-((3S)-6-(trifluoromethyl)-2,3-dihydro-1-benzofuran-3-yl)-1,3-dihydrothieno[3,4-c]quinoline-8-carboxamide], in that order: 105 nM and 2770 nM.
For `CN(C(=O)c1ccc2nc(N)c3ccncc3c2c1)[C@@H]1COc2cc(C(F)(F)F)ccc21` [Example 220, 5-amino-N-methyl-N-((3S)-6-(trifluoromethyl)-2,3-dihydro-1-benzofuran-3-yl)-benzo[c][2,6]naphthyridine-9-carboxamide], in that order: 18 nM and 432 nM.

The record behind these values is patent US20240124442A1, “TRICYCLIC-AMIDO-BICYCLIC PRMT5 INHIBITORS” (AMGEN INC., priority 2021, published 2024).
